Here are results for 14 compounds from patent publication US7521447B2, “P38 inhibitors and methods of use thereof” (Array Biopharma Inc., priority 2003, dated 2009).

The target of one test is activated p38α enzyme (Homo sapiens, UniProt Q16539). Put plainly: p38 Biochemical Assay. Also noted: key: An “active” compound is defined as a compound having an IC50 below 500 nM. Particulars: 5 nM activated p38α, 1 uM ATF-2 substrate, 10 μM ATP. The protocol:
P38 activity was assayed at room temperature in a 100 μl reaction containing 5 nM activated p38α enzyme and 1 uM ATF-2 (Activating Transcription Factor 2 fusion protein) as the substrate in 25 mM HEPES (pH 7.4), 100 μM Vanadate, 1 mM DTT, 10 mM MgCl2 and 10 μM [[…]-^33P]-ATP (˜0.1 μCi P^33/reaction). The reaction was terminated after 30-40 minutes by adding 25% TCA, let stand for 5 minutes and then transferred directly to a GF-B membrane filter plate. The filter was washed twice for 30 seconds with 0.5% phosphoric acid using a Tomtec Mach III Automated Harvestor. After washing, the vacuum was continued for 30 seconds to dry the filter. Approximately 30 μl of scintillant was added per well to the filter plate and then read in a Liquid Scintillation Counter (Packard TopCount HTS).

In test [1] the test system is LPS-induced TNF-α secretion from human peripheral blood mononuclear cells (PBMC). Put plainly: PBMC Assay: inhibition of LPS-induced TNF-α secretion. Type of test: cell-based. Set-up: key: An “active” compound is defined as a compound having an IC50 below 500 nM. The note with it: LPS-stimulated human PBMC, TNF-α ELISA. The procedure:
The ability of compounds of this invention to inhibit TNF-α production was assessed by using human peripheral blood mononuclear cells (“PBMC”) which synthesize and secrete TNF-α when stimulated with lipopolysaccharide.
Compound test solutions were made by making 5 fold serial dilutions in DMSO, which dilutions were then diluted to 5× stocks by diluting with MEM, 2% heat inactivated fetal bovine serum (“FBS”), 20 mM HEPES, 2 mM L-glutamine, and 1% penicillin/streptomycin.
PBMC's were isolated from human blood as follows. Whole blood samples were collected from human volunteers into Vacutainer™ CPT from Becton Dickinson. Tubes were mixed and centrifuged at room temperature (18-25° C.) in a horizontal rotor for a minimum of 15 minutes at 1500-1800 RCF (relative centrifugal force). For each donor, the buffy coat layers were pooled into a single tube and washed twice with phosphate buffered saline (“PBS”). The cell pellet was resuspended in MEM, 2% heat inactivated fetal bovine serum (“FBS”), 20 mM HEPES, 2 mM L-glutamine, and 1% penicillin/streptomycin. Total cell number was determined using a hemocytometer and the cell suspension was adjusted to 2×10^6 cells/mL.
0.1 mL of cell suspension was added to each well of a 96-well cell culture plate. 30 μL of a compound test solution was added, and the cells were incubated in a 37° C./5% CO2 incubator for 1 hour. 20 μL of 7.5 ng/mL lipopolysaccharide (LPS E. Coli K-235) was then added to each well, and the cells were returned to the 37° C./5% CO2 incubator for 16-20 hours. The cells were centrifuged for 15 minutes at 1100 RCF. Approximately 0.12 mL of the supernatant was transferred into a clean 96 well polypropylene plate. The samples were either assayed immediately or were stored at −80° C. until ready for assay. TNF-α levels were determined in each sample using a human TNF-α ELISA assay such as that described below.
TNF-α levels were determined using the following assay. TNF-alpha antibody coated plates were prepared by adding 150 μL of 2 μg/mL anti-TNF-α purified mouse monoclonal IgG in Carbonate-Bicarbonate buffer (BupH™ Carbonate-Bicarbonate Buffer Pack) to wells of a 96-well Immulon 4 plate (Immulon 4 ELISA Flat Bottom Plate; Dynex, catalog number 011-010-3855) and incubated overnight at 2-8° C. Coating solution was removed and 200 μL of “blocking buffer” (20 mM HEPES pH 7.4, 150 mM NaCl, 2% BSA) was added and plates were stored 2-8° C. until ready to use. A ten-point recombinant human TNF-α standard curve was prepared by a 1:2 serial dilution in “sample diluent” (20 mM HEPES, pH 7.4, 150 mM NaCl, 2 mM MgCl2, 1% BSA) with a top concentration of 6000 pg/mL.
Blocking solution was removed from TNF-α ELISA plates by washing five times with 300 μL of “wash buffer” (20 mM HEPES, pH 7.4, 150 mM NaCl, 2 mM MgCl2, 0.02% Tween-20). 50 μL of “sample diluent” was added to all wells, and then either 50 μL of a TNF-α standard curve solution or test compound supernatant was added to all wells. The plate was incubated at room temperature for one hour with shaking (300 rpm). The plate was washed wash five times with 300 μL “wash buffer”. 100 μL of 0.2 μg/mL biotinylated goat anti-human TNF-α in “antibody diluent” (20 mM HEPES, pH 7.4, 150 mM NaCl, 2 mM MgCl2, 1% BSA, 0.02% Tween-20) was added per well, and the plate was incubated at room temperature for one hour with shaking (300 rpm). The plate was washed wash five times with 300 μL “wash buffer” per well. 100 μL of 0.02 μg/mL streptavidin alkaline phosphatase in “antibody diluent” was added per well, and the plate was incubated at room temperature for one hour with shaking (300 rpm). The plate was washed wash five times with 300 μL wash buffer per well. 200 μL of 1 mg/mL pNPP (p-nitrophenyl phosphate) in diethanolamine buffer with 0.5 mM MgCl2 was added per well, and the plate was incubated for 30 to 45 minutes at room temperature with shaking (300 rpm). […]
Background: An ELISA detects its analyte on a solid surface through an enzyme-linked reagent.

The structures appear in SMILES notation.

activated p38α enzyme, sequence (Q16539 whole entry, the tested form may be a part): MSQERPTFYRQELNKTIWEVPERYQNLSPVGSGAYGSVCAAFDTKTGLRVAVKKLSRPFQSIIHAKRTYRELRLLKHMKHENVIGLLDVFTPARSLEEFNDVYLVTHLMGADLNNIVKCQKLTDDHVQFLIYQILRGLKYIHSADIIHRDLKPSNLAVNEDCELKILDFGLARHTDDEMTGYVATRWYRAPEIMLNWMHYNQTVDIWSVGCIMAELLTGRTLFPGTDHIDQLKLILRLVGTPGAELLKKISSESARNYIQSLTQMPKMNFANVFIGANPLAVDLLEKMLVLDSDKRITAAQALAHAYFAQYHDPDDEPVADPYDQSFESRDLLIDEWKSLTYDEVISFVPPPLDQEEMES

Regarding `CC(C)Cn1ncc2cc(C(=O)c3ccc(F)cc3F)ccc21` [Compound 5f-1, (2,4-difluorophenyl)-(1-isobutyl-1H-indazol-5-yl)-methanone], the “p38 Inhibition IC50 (nM)” value at activated p38α enzyme was “active”. Moreover, the “PBMC IC50 (nM)” value in test [1] is recorded as “active”.
As for `CCON=C(c1ccc2c(cnn2CC(C)C)c1)c1ccc(F)cc1F` [Compound 7f-3, (2,4-difluorophenyl)-(1-isobutyl-1H-indazol-5-yl)-methanone O-ethyl-oxime], on activated p38α enzyme, the “p38 Inhibition IC50 (nM)” value is reported as “active”. Further, in test [1], the “PBMC IC50 (nM)” value is “active”.
On to `CC(C)Cn1ncc2cc(C(=O)c3ccc(F)cc3)ccc21` [Compound 5f-2, (4-fluorophenyl)-(1-isobutyl-1H-indazol-5-yl)-methanone], for which the “p38 Inhibition IC50 (nM)” value on activated p38α enzyme is “active”. Also, the “PBMC IC50 (nM)” value in test [1] is recorded as “active”.
For `CC(C)Cn1ncc2cc(C(=NO)c3ccc(F)cc3F)ccc21` [Compound 7f-1, (2,4-difluorophenyl)-(1-isobutyl-1H-indazol-5-yl)-methanone oxime], the “p38 Inhibition IC50 (nM)” value on activated p38α enzyme is recorded as “active”. Further, the “PBMC IC50 (nM)” value in test [1] was “active”.
For the compound `CC(C)Cn1ncc2cc(C(=O)c3ccc(Cl)cc3Cl)ccc21` [Compound 5f-9, (2,4-dichlorophenyl)-(1-isobutyl-1H-indazol-5-yl)-methanone], on activated p38α enzyme, the “p38 Inhibition IC50 (nM)” value was “active”. In addition, the “PBMC IC50 (nM)” value in test [1] is “active”.
With `CC(C)Cn1ncc2cc(Nc3ccc(F)cc3F)ccc21` [Compound 2h-1, (2,4-difluorophenyl)-(1-isobutyl-1H-indazol-5-yl)-amine], on activated p38α enzyme, the “p38 Inhibition IC50 (nM)” value is recorded as “active”. Besides, the “PBMC IC50 (nM)” value in test [1] is “active”.
Take `CC(C)Cn1ncc2cc(C(O)c3ccc(F)cc3F)ccc21` (stereo not shown) [Compound 4f-1, (2,4-difluorophenyl)-(1-isobutyl-1H-indazol-5-yl)-methanol]: the “p38 Inhibition IC50 (nM)” value on activated p38α enzyme is “active”. In addition, the “PBMC IC50 (nM)” value in test [1] was “active”.
With `Cc1ccccc1Nc1ccc2c(cnn2CC(C)C)c1` [Compound 2h-10, (1-isobutyl-1H-indazol-5-yl)-O-tolyl-amine], on activated p38α enzyme, the “p38 Inhibition IC50 (nM)” value was “active”. In addition, the “PBMC IC50 (nM)” value in test [1] is listed as “active”.
As for `CC(C)Cn1ncc2cc(C(O)c3ccc(F)cc3)ccc21` (stereo not shown) [Compound 4f-2, (4-fluorophenyl)-(1-isobutyl-1H-indazol-5-yl)-methanol], the “p38 Inhibition IC50 (nM)” value on activated p38α enzyme was “active”. The “PBMC IC50 (nM)” value in test [1] is recorded as “active”.
Regarding `CC(C)Cn1ncc2cc(C(O)c3ccc(Cl)cc3Cl)ccc21` (stereo not shown) [Compound 4f-9, (2,4-dichlorophenyl)-(1-isobutyl-1H-indazol-5-yl)-methanol], the “p38 Inhibition IC50 (nM)” value on activated p38α enzyme is “active”. The “PBMC IC50 (nM)” value in test [1] was “inactive”.
Taken in the same sequence, the figures for `CC(C)Cn1ncc2cc(C(=NO)c3ccc(F)cc3)ccc21` [Compound 7f-2, (4-fluorophenyl)-(1-isobutyl-1H-indazol-5-yl)-methanone oxime] were “active” and “active”.
Taken in the same sequence, the figures for `Cc1ccccc1C(=O)c1ccc2c(cnn2CC(C)C)c1` [Compound 5f-10, (1-isobutyl-1H-indazol-5-yl)-O-tolyl-methanone] were “active” and “active”.
Taken in the same sequence, the figures for `CC(C)Cn1ncc2cc(Oc3ccc(F)cc3)c(C(=O)NCCN(C)C)cc21` [Compound 11g-10, 5-(4-fluorophenoxy)-1-isobutyl-1H-indazole-6-carboxylic acid (2-dimethylaminoethyl)-amide] were “active” and “active”.
Turning to `CC(C)Cn1ncc2cc(Nc3ccc(F)cc3)ccc21` [Compound 2h-2, (4-fluorophenyl)-(1-isobutyl-1H-indazol-5-yl)-amine], on activated p38α enzyme, the “p38 Inhibition IC50 (nM)” value was “active”. The “PBMC IC50 (nM)” value in test [1] is given as “active”.
